In the kinase profiling compilation of Christmann-Franck et al. (2016):

What was measured:
Experiment in all cases: KINOMEscan competition binding
Details in all cases: compound 10.0 µM
[1] = tested on: PIK3CA (human), P42336 [H1047L]
[2] = tested on: RET (human), P07949 [V804L]
[3] = tested on: PIK3CA (human), P42336 [M1043I]
[4] = tested on: KIT (human), P10721 [A829P]
[5] = tested on: KIT (human), P10721 [D816H]
[6] = tested on: PIK3CA (human), P42336 [E542K]
[7] = tested on: FLT3 (human), P36888 [D835Y]
[8] = tested on: LRRK2 (human), Q5S007 [G2019S]
[9] = tested on: MET (human), P08581 [M1250T]
[10] = tested on: EGFR (human), P00533 [L858R]
[11] = tested on: EGFR (human), P00533 [A750P; 747-749 del]
[12] = tested on: BMX (human), P51813 [V600E]
Sequence of BMX (human), P51813 [V600E] (P51813 whole entry, looked up, stated change not applied): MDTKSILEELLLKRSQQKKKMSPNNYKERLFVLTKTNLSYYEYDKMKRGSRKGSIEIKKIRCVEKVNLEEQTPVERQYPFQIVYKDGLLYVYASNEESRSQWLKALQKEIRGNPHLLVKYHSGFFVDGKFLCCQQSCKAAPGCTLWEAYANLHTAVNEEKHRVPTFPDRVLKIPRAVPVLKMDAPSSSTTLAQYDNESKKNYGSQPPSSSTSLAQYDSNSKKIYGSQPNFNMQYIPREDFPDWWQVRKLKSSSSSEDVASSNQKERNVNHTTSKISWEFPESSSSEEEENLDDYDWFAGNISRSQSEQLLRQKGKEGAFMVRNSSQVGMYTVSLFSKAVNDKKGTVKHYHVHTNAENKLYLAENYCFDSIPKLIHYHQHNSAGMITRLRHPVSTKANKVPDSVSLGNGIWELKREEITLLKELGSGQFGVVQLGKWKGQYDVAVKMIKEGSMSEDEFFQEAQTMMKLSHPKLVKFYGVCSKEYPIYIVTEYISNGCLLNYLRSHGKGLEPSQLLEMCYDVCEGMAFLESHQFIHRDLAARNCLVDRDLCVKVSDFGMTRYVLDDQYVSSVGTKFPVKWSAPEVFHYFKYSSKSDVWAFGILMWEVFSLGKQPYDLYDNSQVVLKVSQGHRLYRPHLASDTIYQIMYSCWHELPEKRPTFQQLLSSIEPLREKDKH

[13] = tested on: EGFR (human), P00533 [G719C]
[14] = tested on: FGFR3 (human), P22607 [G697C]
Sequence of FGFR3 (human), P22607 [G697C] (P22607 whole entry G697C, looked up): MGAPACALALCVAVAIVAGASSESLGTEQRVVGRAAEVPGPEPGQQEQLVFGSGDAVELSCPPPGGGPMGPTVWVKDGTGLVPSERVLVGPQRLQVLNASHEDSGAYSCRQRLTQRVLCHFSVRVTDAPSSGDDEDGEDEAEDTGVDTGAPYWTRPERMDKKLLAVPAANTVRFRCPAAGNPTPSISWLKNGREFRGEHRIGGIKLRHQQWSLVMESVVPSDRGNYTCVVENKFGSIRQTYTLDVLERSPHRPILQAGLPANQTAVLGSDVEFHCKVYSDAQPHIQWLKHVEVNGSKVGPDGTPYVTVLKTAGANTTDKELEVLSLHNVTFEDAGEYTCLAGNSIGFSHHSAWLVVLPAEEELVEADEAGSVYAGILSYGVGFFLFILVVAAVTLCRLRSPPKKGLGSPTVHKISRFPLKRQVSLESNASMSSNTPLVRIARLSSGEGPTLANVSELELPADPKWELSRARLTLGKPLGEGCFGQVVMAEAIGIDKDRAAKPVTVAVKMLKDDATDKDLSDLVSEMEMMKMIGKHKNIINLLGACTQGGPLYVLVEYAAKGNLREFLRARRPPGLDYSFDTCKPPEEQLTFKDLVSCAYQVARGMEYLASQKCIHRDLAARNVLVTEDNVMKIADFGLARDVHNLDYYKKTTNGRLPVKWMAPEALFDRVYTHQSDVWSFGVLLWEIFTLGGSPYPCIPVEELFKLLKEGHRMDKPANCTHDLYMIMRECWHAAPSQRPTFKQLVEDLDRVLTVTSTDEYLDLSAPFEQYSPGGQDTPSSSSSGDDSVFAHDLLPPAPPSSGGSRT

Sequence of PIK3CA (human), P42336 [H1047L] (P42336 whole entry H1047L, looked up): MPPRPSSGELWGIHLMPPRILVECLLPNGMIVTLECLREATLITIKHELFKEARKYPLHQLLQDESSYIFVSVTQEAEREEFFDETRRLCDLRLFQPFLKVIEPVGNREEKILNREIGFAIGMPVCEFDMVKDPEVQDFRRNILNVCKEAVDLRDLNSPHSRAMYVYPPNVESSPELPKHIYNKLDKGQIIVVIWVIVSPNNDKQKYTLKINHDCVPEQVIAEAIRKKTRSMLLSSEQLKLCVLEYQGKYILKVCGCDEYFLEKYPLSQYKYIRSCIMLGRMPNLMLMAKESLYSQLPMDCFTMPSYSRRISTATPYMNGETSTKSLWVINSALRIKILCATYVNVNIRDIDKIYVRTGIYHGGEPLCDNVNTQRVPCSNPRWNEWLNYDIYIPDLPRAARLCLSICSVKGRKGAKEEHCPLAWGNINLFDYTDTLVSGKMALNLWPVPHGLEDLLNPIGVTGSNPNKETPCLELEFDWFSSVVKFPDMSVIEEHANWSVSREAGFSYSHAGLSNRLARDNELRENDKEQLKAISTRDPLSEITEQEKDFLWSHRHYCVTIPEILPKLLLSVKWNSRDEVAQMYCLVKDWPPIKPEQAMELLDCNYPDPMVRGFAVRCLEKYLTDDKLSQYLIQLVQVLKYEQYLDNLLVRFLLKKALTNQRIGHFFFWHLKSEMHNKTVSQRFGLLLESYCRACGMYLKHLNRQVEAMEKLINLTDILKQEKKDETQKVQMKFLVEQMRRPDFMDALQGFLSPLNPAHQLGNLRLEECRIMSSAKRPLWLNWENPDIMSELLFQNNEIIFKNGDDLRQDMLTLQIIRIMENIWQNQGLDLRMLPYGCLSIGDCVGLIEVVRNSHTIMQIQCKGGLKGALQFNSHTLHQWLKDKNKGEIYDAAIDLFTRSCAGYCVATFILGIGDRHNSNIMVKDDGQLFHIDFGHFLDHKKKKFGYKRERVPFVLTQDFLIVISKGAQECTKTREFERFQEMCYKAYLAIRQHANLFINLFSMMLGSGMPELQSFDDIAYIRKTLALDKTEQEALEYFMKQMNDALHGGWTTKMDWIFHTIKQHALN
Sequence of RET (human), P07949 [V804L] (P07949 whole entry V804L, looked up): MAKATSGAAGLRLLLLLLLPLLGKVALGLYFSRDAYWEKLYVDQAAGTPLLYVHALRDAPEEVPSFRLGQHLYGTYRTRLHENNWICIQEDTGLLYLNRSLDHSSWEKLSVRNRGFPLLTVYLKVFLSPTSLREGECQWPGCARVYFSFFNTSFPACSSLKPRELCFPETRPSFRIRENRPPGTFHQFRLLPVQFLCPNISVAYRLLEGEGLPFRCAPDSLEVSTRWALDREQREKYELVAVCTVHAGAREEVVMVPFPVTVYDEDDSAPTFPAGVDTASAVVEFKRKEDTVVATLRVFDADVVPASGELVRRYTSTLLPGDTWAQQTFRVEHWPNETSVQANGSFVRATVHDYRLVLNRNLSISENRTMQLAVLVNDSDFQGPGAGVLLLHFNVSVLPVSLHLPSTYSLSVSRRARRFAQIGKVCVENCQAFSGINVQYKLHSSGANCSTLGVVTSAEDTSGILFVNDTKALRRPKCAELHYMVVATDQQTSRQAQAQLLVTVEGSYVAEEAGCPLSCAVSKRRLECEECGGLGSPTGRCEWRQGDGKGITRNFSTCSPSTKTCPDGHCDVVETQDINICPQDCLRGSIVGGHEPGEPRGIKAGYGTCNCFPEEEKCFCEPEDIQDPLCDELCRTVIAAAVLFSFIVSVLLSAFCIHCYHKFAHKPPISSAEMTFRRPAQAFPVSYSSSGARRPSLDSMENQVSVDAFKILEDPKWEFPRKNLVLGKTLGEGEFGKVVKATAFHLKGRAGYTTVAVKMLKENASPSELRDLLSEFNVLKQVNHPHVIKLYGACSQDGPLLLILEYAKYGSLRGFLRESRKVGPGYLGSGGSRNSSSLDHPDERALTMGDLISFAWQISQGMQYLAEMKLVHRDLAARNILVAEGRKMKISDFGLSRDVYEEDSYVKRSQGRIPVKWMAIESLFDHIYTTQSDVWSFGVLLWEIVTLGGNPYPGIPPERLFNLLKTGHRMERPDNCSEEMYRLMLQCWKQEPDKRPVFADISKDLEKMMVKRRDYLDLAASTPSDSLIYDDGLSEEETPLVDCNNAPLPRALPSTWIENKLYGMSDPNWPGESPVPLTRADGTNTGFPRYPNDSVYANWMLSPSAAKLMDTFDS
Sequence of PIK3CA (human), P42336 [E542K] (P42336 whole entry E542K, looked up): as the sequence (P42336 whole entry H1047L, looked up) above, with E542K, L1047H counted along it
Sequence of KIT (human), P10721 [D816H] (P10721 whole entry D816H, looked up): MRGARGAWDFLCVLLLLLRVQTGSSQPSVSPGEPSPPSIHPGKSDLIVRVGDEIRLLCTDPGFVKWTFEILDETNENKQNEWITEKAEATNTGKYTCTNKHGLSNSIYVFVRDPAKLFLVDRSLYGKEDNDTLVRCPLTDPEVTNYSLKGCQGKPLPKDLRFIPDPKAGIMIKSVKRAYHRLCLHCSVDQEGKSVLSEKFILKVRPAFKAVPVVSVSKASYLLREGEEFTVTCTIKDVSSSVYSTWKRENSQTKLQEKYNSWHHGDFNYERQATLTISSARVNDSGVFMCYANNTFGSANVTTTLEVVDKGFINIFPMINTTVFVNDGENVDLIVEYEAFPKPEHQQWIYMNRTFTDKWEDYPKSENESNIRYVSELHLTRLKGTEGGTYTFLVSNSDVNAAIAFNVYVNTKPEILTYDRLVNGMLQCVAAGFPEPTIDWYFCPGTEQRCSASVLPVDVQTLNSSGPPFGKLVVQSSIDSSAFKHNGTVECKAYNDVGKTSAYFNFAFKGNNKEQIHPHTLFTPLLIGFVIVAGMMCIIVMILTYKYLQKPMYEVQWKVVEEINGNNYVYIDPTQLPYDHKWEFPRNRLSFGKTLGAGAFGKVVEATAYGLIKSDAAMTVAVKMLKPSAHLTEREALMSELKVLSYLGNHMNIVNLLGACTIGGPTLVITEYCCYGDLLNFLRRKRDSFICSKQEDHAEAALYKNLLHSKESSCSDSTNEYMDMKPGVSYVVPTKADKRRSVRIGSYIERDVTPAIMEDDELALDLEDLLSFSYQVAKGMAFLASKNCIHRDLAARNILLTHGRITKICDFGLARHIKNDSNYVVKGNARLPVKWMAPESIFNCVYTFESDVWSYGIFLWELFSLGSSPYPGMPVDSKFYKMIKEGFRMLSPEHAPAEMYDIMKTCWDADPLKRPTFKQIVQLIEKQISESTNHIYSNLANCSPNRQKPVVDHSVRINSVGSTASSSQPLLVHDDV
Sequence of PIK3CA (human), P42336 [M1043I] (P42336 whole entry M1043I, looked up): as the sequence (P42336 whole entry H1047L, looked up) above, with M1043I, L1047H counted along it
Sequence of KIT (human), P10721 [A829P] (P10721 whole entry A829P, looked up): as the sequence (P10721 whole entry D816H, looked up) above, with H816D, A829P counted along it

O=C(NC1CC1)c1cccc(-c2ccc3c(NC(=O)C4CC4)n[nH]c3c2)c1
kinase still bound, per cent of control [1]: 98% | kinase still bound, per cent of control [2]: 96% | kinase still bound, per cent of control [3]: 92% | kinase still bound, per cent of control [4]: 76% | kinase still bound, per cent of control [5]: 75% | kinase still bound, per cent of control [6]: 100% | kinase still bound, per cent of control [7]: 15% | kinase still bound, per cent of control [8]: 87% | kinase still bound, per cent of control [9]: 73% | kinase still bound, per cent of control [10]: 93% | kinase still bound, per cent of control [11]: 82% | kinase still bound, per cent of control [12]: 65% | kinase still bound, per cent of control [13]: 73% | kinase still bound, per cent of control [14]: 100%

CN(C)C/C=C/C(=O)Nc1ccc(C(=O)Nc2cccc(Nc3nccc(-c4cccnc4)n3)c2)cc1
kinase still bound, per cent of control [1]: 100% | kinase still bound, per cent of control [2]: 84% | kinase still bound, per cent of control [3]: 100% | kinase still bound, per cent of control [4]: 64% | kinase still bound, per cent of control [5]: 51% | kinase still bound, per cent of control [6]: 100% | kinase still bound, per cent of control [7]: 18% | kinase still bound, per cent of control [8]: 76% | kinase still bound, per cent of control [9]: 100% | kinase still bound, per cent of control [10]: 99% | kinase still bound, per cent of control [11]: 100% | kinase still bound, per cent of control [12]: 63% | kinase still bound, per cent of control [13]: 83% | kinase still bound, per cent of control [14]: 84%

CCN1CCN(C(=O)Cc2ccc(Nc3ncc(F)c(Nc4ccc(C(=O)Nc5ccccc5Cl)cc4)n3)cc2)CC1
kinase still bound, per cent of control [1]: 100% | kinase still bound, per cent of control [2]: 3.2% | kinase still bound, per cent of control [3]: 100% | kinase still bound, per cent of control [4]: 64% | kinase still bound, per cent of control [5]: 25% | kinase still bound, per cent of control [6]: 84% | kinase still bound, per cent of control [7]: 0.15% | kinase still bound, per cent of control [8]: 53% | kinase still bound, per cent of control [9]: 11% | kinase still bound, per cent of control [10]: 28% | kinase still bound, per cent of control [11]: 11% | kinase still bound, per cent of control [12]: 43% | kinase still bound, per cent of control [13]: 46% | kinase still bound, per cent of control [14]: 21%

O=C1NC(=O)/C(=C/c2ccc3nccc(-c4ccncc4)c3c2)S1
kinase still bound, per cent of control [1]: 27% | kinase still bound, per cent of control [2]: 100% | kinase still bound, per cent of control [3]: 0% | kinase still bound, per cent of control [4]: 88% | kinase still bound, per cent of control [5]: 89% | kinase still bound, per cent of control [6]: 0.2% | kinase still bound, per cent of control [7]: 28% | kinase still bound, per cent of control [8]: 58% | kinase still bound, per cent of control [9]: 40% | kinase still bound, per cent of control [10]: 43% | kinase still bound, per cent of control [11]: 47% | kinase still bound, per cent of control [12]: 41% | kinase still bound, per cent of control [13]: 54% | kinase still bound, per cent of control [14]: 100%

CN(C)C/C=C/C(=O)Nc1cccc(Nc2ncc3c(n2)N(C)c2ccccc2C(=O)N3C)c1
kinase still bound, per cent of control [1]: 16% | kinase still bound, per cent of control [2]: 0.15% | kinase still bound, per cent of control [3]: 39% | kinase still bound, per cent of control [4]: 40% | kinase still bound, per cent of control [5]: 33% | kinase still bound, per cent of control [6]: 39% | kinase still bound, per cent of control [7]: 1.4% | kinase still bound, per cent of control [8]: 6.1% | kinase still bound, per cent of control [9]: 43% | kinase still bound, per cent of control [10]: 73% | kinase still bound, per cent of control [11]: 71% | kinase still bound, per cent of control [12]: 59% | kinase still bound, per cent of control [13]: 14% | kinase still bound, per cent of control [14]: 12%

O=C(Nc1cccc(Nc2ncc(Br)c(NCCc3cnc[nH]3)n2)c1)N1CCCC1
kinase still bound, per cent of control [1]: 59% | kinase still bound, per cent of control [2]: 0.15% | kinase still bound, per cent of control [3]: 95% | kinase still bound, per cent of control [4]: 28% | kinase still bound, per cent of control [5]: 11% | kinase still bound, per cent of control [6]: 100% | kinase still bound, per cent of control [7]: 0.1% | kinase still bound, per cent of control [8]: 8.4% | kinase still bound, per cent of control [9]: 4.6% | kinase still bound, per cent of control [10]: 65% | kinase still bound, per cent of control [11]: 41% | kinase still bound, per cent of control [12]: 62% | kinase still bound, per cent of control [13]: 24% | kinase still bound, per cent of control [14]: 0.8%

COc1ccc(N(C(=O)Oc2c(C)cccc2C)c2ccnc(Nc3ccc(N4CCN(C)CC4)cc3)n2)c(OC)c1
kinase still bound, per cent of control [1]: 100% | kinase still bound, per cent of control [2]: 85% | kinase still bound, per cent of control [3]: 99% | kinase still bound, per cent of control [4]: 56% | kinase still bound, per cent of control [5]: 44% | kinase still bound, per cent of control [6]: 100% | kinase still bound, per cent of control [7]: 5.2% | kinase still bound, per cent of control [8]: 84% | kinase still bound, per cent of control [9]: 5.4% | kinase still bound, per cent of control [10]: 0% | kinase still bound, per cent of control [11]: 1% | kinase still bound, per cent of control [12]: 38% | kinase still bound, per cent of control [13]: 0.25% | kinase still bound, per cent of control [14]: 2.6%

O=c1cc(N2CCOCC2)oc2c(-c3cccc4c3sc3ccccc34)cccc12
kinase still bound, per cent of control [1]: 4.4% | kinase still bound, per cent of control [2]: 100% | kinase still bound, per cent of control [3]: 17% | kinase still bound, per cent of control [4]: 96% | kinase still bound, per cent of control [5]: 100% | kinase still bound, per cent of control [6]: 27% | kinase still bound, per cent of control [7]: 79% | kinase still bound, per cent of control [8]: 100% | kinase still bound, per cent of control [9]: 67% | kinase still bound, per cent of control [10]: 89% | kinase still bound, per cent of control [11]: 91% | kinase still bound, per cent of control [12]: 95% | kinase still bound, per cent of control [13]: 100% | kinase still bound, per cent of control [14]: 94%

C[C@@H](Oc1cc(-n2cnc3ccc(CN4CCN(C)CC4)cc32)sc1C(N)=O)c1ccccc1C(F)(F)F
kinase still bound, per cent of control [1]: 16% | kinase still bound, per cent of control [2]: 100% | kinase still bound, per cent of control [3]: 63% | kinase still bound, per cent of control [4]: 29% | kinase still bound, per cent of control [5]: 40% | kinase still bound, per cent of control [6]: 91% | kinase still bound, per cent of control [7]: 21% | kinase still bound, per cent of control [8]: 40% | kinase still bound, per cent of control [9]: 93% | kinase still bound, per cent of control [10]: 86% | kinase still bound, per cent of control [11]: 81% | kinase still bound, per cent of control [12]: 58% | kinase still bound, per cent of control [13]: 100% | kinase still bound, per cent of control [14]: 75%

C=CC(=O)Nc1cc(-n2c(=O)ccc3cnc4ccc(-c5cn[nH]c5)cc4c32)ccc1C
kinase still bound, per cent of control [1]: 4.6% | kinase still bound, per cent of control [2]: 79% | kinase still bound, per cent of control [3]: 15% | kinase still bound, per cent of control [4]: 36% | kinase still bound, per cent of control [5]: 14% | kinase still bound, per cent of control [6]: 20% | kinase still bound, per cent of control [7]: 1.2% | kinase still bound, per cent of control [8]: 6.4% | kinase still bound, per cent of control [9]: 80% | kinase still bound, per cent of control [10]: 41% | kinase still bound, per cent of control [11]: 26% | kinase still bound, per cent of control [12]: 91% | kinase still bound, per cent of control [13]: 100% | kinase still bound, per cent of control [14]: 74%

COc1cc(C(=O)N2CCC(N3CCN(C)CC3)CC2)ccc1Nc1ncc2c(n1)N(C)c1ccccc1C(=O)N2C
kinase still bound, per cent of control [1]: 20% | kinase still bound, per cent of control [2]: 89% | kinase still bound, per cent of control [3]: 65% | kinase still bound, per cent of control [4]: 100% | kinase still bound, per cent of control [5]: 100% | kinase still bound, per cent of control [6]: 77% | kinase still bound, per cent of control [7]: 100% | kinase still bound, per cent of control [8]: 5% | kinase still bound, per cent of control [9]: 96% | kinase still bound, per cent of control [10]: 79% | kinase still bound, per cent of control [11]: 78% | kinase still bound, per cent of control [12]: 100% | kinase still bound, per cent of control [13]: 100% | kinase still bound, per cent of control [14]: 85%
